Measurements reported in US5994406A, “Geminal cationic surfactants of the type Nα Nω bis (Nα-acyl-arginin) α,ω diamino alkyl dichlorohydrates as antimicrobial agents” (Consejo Superior Investigaciones Cientificas, priority 1995, dated 1999).
≈ marks a conversion by molar mass, not a printed value. Read-outs that look alike come from different tables or passages of the source.

How the values were obtained:
[1] = surface activity: surface tension at the critical micellar concentration, aqueous solution 25° C; assay type: physicochemical; parameters: unit not given here
Experimental: (§1) The main properties of the surface activity in aqueous solution at 25° C. which define the practical interest of a surfactant; surface stress to the critical micellar concentration (γ) and critical micellar concentration (CMC) have been determined according to conventional methods. Likewise, the antimicrobial activity has been evaluated based on the inhibiting minimum concentration values (MIC) expressed in μg/mL following the most common methodologies. Table 1 indicates the values of […], CMC and MIC for two dimers of the same homologeous series; C4 (KA)2 (X=8,n=4) and C4 (LA)2 (X=10, n=4). For the purpose of comparisons in this same table the same values are indicated for the monocatenary compounds KAM and LAM respectively.

[2] = test system: Alcaligenes faecalis ATTCC 8750; assay: antimicrobial activity, minimum inhibitory concentration (MIC), organism 1; assay type: cell-based
Experimental: as §1
1. Alcaligenes faecalis ATTCC 8750

[3] = critical micellar concentration (CMC), aqueous solution 25° C; assay type: physicochemical
Experimental: as §1

[4] = test system: Staphylococcus epidermidis ATCC 1551; assay: antimicrobial activity, MIC, organism 6; assay type: cell-based
Experimental: as §1
6. Staphylococcus epidermidis ATCC 1551

[5] = test system: Bacilus subtilis ATCC 6633; assay: antimicrobial activity, MIC, organism 4; assay type: cell-based
Experimental: as §1
4. Bacilus subtilis ATCC 6633

[6] = test system: Staphylococcus aereus ATCC 25178; assay: antimicrobial activity, MIC, organism 5; assay type: cell-based
Experimental: as §1
5. Staphylococcus aereus ATCC 25178

[7] = test system: Streptococcus faecalis ATCC 10541; assay: antimicrobial activity, MIC, organism 3; assay type: cell-based
Experimental: as §1
3. Streptococcus faecalis ATCC 10541

[8] = test system: Bordeltella bronchiseptica ATCC; assay: antimicrobial activity, MIC, organism 2; assay type: cell-based
Experimental: as §1
2. Bordeltella bronchiseptica ATCC

[9] = test system: Micrococcus luteus ATCC 9341; assay: antimicrobial activity, MIC, organism 7; assay type: cell-based
Experimental: as §1
7. Micrococcus luteus ATCC 9341

With CCCCCCCCCC(=O)N[C@@H](CCCNC(=N)N)C(=O)NCCCCNC(=O)[C@H](CCCNC(=N)N)NC(=O)CCCCCCCCC [C4 (KA)2, Nα, Nω, Bis (Nα -Decanoilarginin) α,ω-Diaminobuthylamide] the “surface stress (γ) at the critical micellar concentration” value [1] was 25, the MIC ([2]; ATTCC8750, read-out: MIC) was 64 µg/mL (≈ 90.3 µM) and the CMC [3] was 7.8e-06 mM. The MIC ([4]; ATCC1551, read-out: MIC) was 8 µg/mL (≈ 11.3 µM), the MIC ([5]; read-out: MIC) was 8 µg/mL (≈ 11.3 µM) and the MIC ([6]; ATCC25178, read-out: MIC) was 8 µg/mL (≈ 11.3 µM). It also gave an MIC ([7]; Enterococcus faecalis, ATCC10541, read-out: MIC) of 16 µg/mL (≈ 22.6 µM), an MIC ([8]; read-out: MIC) of 32 µg/mL (≈ 45.1 µM) and an MIC ([9]; ATCC9341, read-out: MIC) of 8 µg/mL (≈ 11.3 µM).

With CCCCCCCCCCCC(=O)N[C@@H](CCCN=C(N)N)C(=O)OC [LAM] the “surface stress (γ) at the critical micellar concentration” value [1] was 30.0, the MIC [2] was 64 µg/mL (≈ 173 µM) and the CMC [3] was 0.0037 mM. For the same compound, the MIC [4] was 64 µg/mL (≈ 173 µM), the MIC [5] was > 128 µg/mL and the MIC [6] was 64 µg/mL (≈ 173 µM). For the same compound, the MIC [7] was 32 µg/mL (≈ 86.4 µM), the MIC [8] was > 128 µg/mL and the MIC [9] was > 128 µg/mL.
